Source: ChEMBL document CHEMBL3885881, “DrugMatrix”

Species on record: Rattus norvegicus
Assay: DrugMatrix - Regimen: Daily Repeat
Assay type: toxicity, organism-based, Sprague-Dawley
Design: regimen Daily Repeat, gender Male, age 6-8 weeks
Settings: in vivo, sc, route subcutaneous, […]; for ABSOLUTE BASOPHIL / ABSOLUTE EOSINOPHIL / ABSOLUTE LYMPHOCYTE / ABSOLUTE MONOCYTE / ABSOLUTE SEGMENTED NEUTROPHIL / BASOPHIL / EOSINOPHIL / ERYTHROCYTE COUNT / HEMATOCRIT / HEMOGLOBIN / LEUKOCYTE COUNT / LYMPHOCYTE / MEAN CORPUSCULAR HEMOGLOBIN / MEAN CORPUSCULAR HEMOGLOBIN CONCENTRATION / MEAN CORPUSCULAR VOLUME / MONOCYTE / NEUTROPHIL / NUCLEATED RED BLOOD CELLS / PLATELET COUNT: tissue Blood; for ALANINE AMINOTRANSFERASE / ALBUMIN / ALKALINE PHOSPHATASE / ASPARTATE AMINOTRANSFERASE / BLOOD UREA NITROGEN / CARBON DIOXIDE / CHLORIDE / CHOLESTEROL / CREATINE PHOSPHOKINASE / CREATININE / GLUCOSE / LACTATE DEHYDROGENASE / LIPASE / PHOSPHORUS / POTASSIUM / SODIUM / TOTAL BILIRUBIN / TOTAL PROTEIN / URIC ACID: tissue Plasma
[1] = 0 mg/kg, 72 h, dose level Control, time 3 day
[2] = 0 mg/kg, 120 h, dose level Control, time 5 day
[3] = 0.8 mg/kg, 72 h, dose level Low, time 3 day

## Oc1c(Cl)cc(Cl)c(Cl)c1Cc1c(O)c(Cl)cc(Cl)c1Cl [HEXACHLOROPHENE]
[1]
  ABSOLUTE BASOPHIL: 0 CELLS/uL
  ABSOLUTE EOSINOPHIL: 92.33 CELLS/uL
  ABSOLUTE LYMPHOCYTE: 12247.5 CELLS/uL
  ABSOLUTE MONOCYTE: 389.67 CELLS/uL
  ABSOLUTE SEGMENTED NEUTROPHIL: 1320.5 CELLS/uL
  BASOPHIL: 0%
  EOSINOPHIL: 0.67%
  ERYTHROCYTE COUNT: 5.45 x10E6/uL
  HEMATOCRIT: 34.85%
  HEMOGLOBIN: 12.97 G/DL
  LEUKOCYTE COUNT: 14.05 x10E3/uL
  LYMPHOCYTE: 87.33%
  MEAN CORPUSCULAR HEMOGLOBIN: 23.78 pg
  MEAN CORPUSCULAR HEMOGLOBIN CONCENTRATION: 37.22 G/DL
  MEAN CORPUSCULAR VOLUME: 63.93 fL
  MONOCYTE: 2.67%
  NEUTROPHIL: 9.33%
  NUCLEATED RED BLOOD CELLS: 0 /100WBC
  PLATELET COUNT: 1174 x10E3/uL
  ALANINE AMINOTRANSFERASE: 48.83 u/L
  ALBUMIN: 4.23 G/DL
  ALKALINE PHOSPHATASE: 351.5 u/L
  ASPARTATE AMINOTRANSFERASE: 90 u/L
  BLOOD UREA NITROGEN: 15.33 mg/dL
  CARBON DIOXIDE: 23 mmol/L
  CHLORIDE: 103.5 MEQ/L
  CHOLESTEROL: 70.5 mg/dL
  CREATINE PHOSPHOKINASE: 651.83 u/L
  CREATININE: 0.22 mg/dL
  GLUCOSE: 180.67 mg/dL
  LACTATE DEHYDROGENASE: 165 u/L
  LIPASE: 9.33 u/L
  PHOSPHORUS: 12.03 mg/dL
  POTASSIUM: 6.17 MEQ/L
  SODIUM: 142.62 MEQ/L
  TOTAL BILIRUBIN: 0.2 mg/dL
  TOTAL PROTEIN: 5.73 G/DL
  URIC ACID: 1.77 mg/dL
[2]
  ABSOLUTE BASOPHIL: 0 CELLS/uL
  ABSOLUTE EOSINOPHIL: 0 CELLS/uL
  ABSOLUTE LYMPHOCYTE: 12736.67 CELLS/uL
  ABSOLUTE MONOCYTE: 253.5 CELLS/uL
  ABSOLUTE SEGMENTED NEUTROPHIL: 1193.17 CELLS/uL
  BASOPHIL: 0%
  EOSINOPHIL: 0%
  ERYTHROCYTE COUNT: 5.72 x10E6/uL
  HEMATOCRIT: 36.05%
  HEMOGLOBIN: 13.62 G/DL
  LEUKOCYTE COUNT: 14.18 x10E3/uL
  LYMPHOCYTE: 89.33%
  MEAN CORPUSCULAR HEMOGLOBIN: 23.83 pg
  MEAN CORPUSCULAR HEMOGLOBIN CONCENTRATION: 37.8 G/DL
  MEAN CORPUSCULAR VOLUME: 63.05 fL
  MONOCYTE: 1.83%
  NEUTROPHIL: 8.83%
  NUCLEATED RED BLOOD CELLS: 0 /100WBC
  PLATELET COUNT: 1322.17 x10E3/uL
  ALANINE AMINOTRANSFERASE: 48.83 u/L
  ALBUMIN: 4.27 G/DL
  ALKALINE PHOSPHATASE: 295.17 u/L
  ASPARTATE AMINOTRANSFERASE: 75.83 u/L
  BLOOD UREA NITROGEN: 15.5 mg/dL
  CARBON DIOXIDE: 30.5 mmol/L
  CHLORIDE: 102.33 MEQ/L
  CHOLESTEROL: 76.17 mg/dL
  CREATINE PHOSPHOKINASE: 205.5 u/L
  CREATININE: 0.2 mg/dL
  GLUCOSE: 149.67 mg/dL
  LACTATE DEHYDROGENASE: 124.5 u/L
  LIPASE: 10 u/L
  PHOSPHORUS: 10.93 mg/dL
  POTASSIUM: 6.59 MEQ/L
  SODIUM: 143.1 MEQ/L
  TOTAL BILIRUBIN: 0.2 mg/dL
  TOTAL PROTEIN: 6.05 G/DL
  URIC ACID: 1.45 mg/dL
[3]
  ABSOLUTE BASOPHIL: 0 CELLS/uL
  ABSOLUTE EOSINOPHIL: 0 CELLS/uL
  ABSOLUTE LYMPHOCYTE: 12277.33 CELLS/uL
  ABSOLUTE MONOCYTE: 275.33 CELLS/uL
  ABSOLUTE SEGMENTED NEUTROPHIL: 1214 CELLS/uL
  BASOPHIL: 0%
  EOSINOPHIL: 0%
  ERYTHROCYTE COUNT: 5.64 x10E6/uL
  HEMATOCRIT: 34.87%
  HEMOGLOBIN: 13.13 G/DL
  LEUKOCYTE COUNT: 13.77 x10E3/uL
  LYMPHOCYTE: 89.33%
  MEAN CORPUSCULAR HEMOGLOBIN: 23.3 pg
  MEAN CORPUSCULAR HEMOGLOBIN CONCENTRATION: 37.67 G/DL
  MEAN CORPUSCULAR VOLUME: 61.83 fL
  MONOCYTE: 2%
  NEUTROPHIL: 8.67%
  NUCLEATED RED BLOOD CELLS: 0 /100WBC
  PLATELET COUNT: 1307.67 x10E3/uL
  ALANINE AMINOTRANSFERASE: 41.67 u/L
  ALBUMIN: 4.47 G/DL
  ALKALINE PHOSPHATASE: 339.67 u/L
  ASPARTATE AMINOTRANSFERASE: 84 u/L
  BLOOD UREA NITROGEN: 18 mg/dL
  CARBON DIOXIDE: 24.67 mmol/L
  CHLORIDE: 102.67 MEQ/L
  CHOLESTEROL: 79.67 mg/dL
  CREATINE PHOSPHOKINASE: 217.33 u/L
  CREATININE: 0.21 mg/dL
  GLUCOSE: 142.33 mg/dL
  LACTATE DEHYDROGENASE: 343.67 u/L
  LIPASE: 10 u/L
  PHOSPHORUS: 13.23 mg/dL
  POTASSIUM: 6.86 MEQ/L
  SODIUM: 144.73 MEQ/L
  TOTAL BILIRUBIN: 0.23 mg/dL
  TOTAL PROTEIN: 6 G/DL
  URIC ACID: 2 mg/dL
